The results in this text go back to ChEMBL document CHEMBL4043137, “Structure-based design, synthesis and in vitro antiproliferative effects studies of novel dual BRD4/HDAC inhibitors” (Bioorg Med Chem Lett, 2017).

For assay [1], the target named is T1, Bromodomain-containing protein 4 (Homo sapiens, UniProt O60885). Kind of assay: Inhibition of BRD4 (unknown origin).
Assay [2] relates to OCI-AML-3. Kind of assay: cells. As to conditions: Homo sapiens, OCI-AML-3, 72 h. Type of assay: functional, cell-based.
Description: Antiproliferative activity against human OCI-AML3 cells after 72 hrs by MTT assay
Assay [3] concerns OCI-AML2. Kind of assay: cells. Particulars: Homo sapiens, OCI-AML2, 72 h. Type of assay: functional, cell-based.
Description: Antiproliferative activity against human OCI-AML2 cells after 72 hrs by MTT assay
The test system of assay [4] is MV4-11. Kind of assay: cells. Particulars: Homo sapiens, MV4-11, 72 h. The assay is classed as functional, cell-based.
Description: Antiproliferative activity against human MV4-11 cells after 72 hrs by MTT assay
Assay [5] concerns the target T1, Bromodomain-containing protein 4. Kind of assay: Inhibition of human BRD4 bromo domain 2 at 5 uM.
Assay [6] has the same target. Kind of assay: Inhibition of human BRD4 bromo domain 1.
Assay [7] concerns the target Histone deacetylase 1 (Homo sapiens, UniProt Q13547). Kind of assay: Inhibition of recombinant human HDAC1 after 30 mins by fluorescence assay.
In assay [8] the target is T1, Bromodomain-containing protein 4. Kind of assay: Inhibition of human BRD4 bromo domain 2.
Assay [9] shares this target. Kind of assay: Inhibition of human BRD4 bromo domain 2 at 0.5 uM.

Histone deacetylase 1, sequence (Q13547 whole entry, the tested form may be a part): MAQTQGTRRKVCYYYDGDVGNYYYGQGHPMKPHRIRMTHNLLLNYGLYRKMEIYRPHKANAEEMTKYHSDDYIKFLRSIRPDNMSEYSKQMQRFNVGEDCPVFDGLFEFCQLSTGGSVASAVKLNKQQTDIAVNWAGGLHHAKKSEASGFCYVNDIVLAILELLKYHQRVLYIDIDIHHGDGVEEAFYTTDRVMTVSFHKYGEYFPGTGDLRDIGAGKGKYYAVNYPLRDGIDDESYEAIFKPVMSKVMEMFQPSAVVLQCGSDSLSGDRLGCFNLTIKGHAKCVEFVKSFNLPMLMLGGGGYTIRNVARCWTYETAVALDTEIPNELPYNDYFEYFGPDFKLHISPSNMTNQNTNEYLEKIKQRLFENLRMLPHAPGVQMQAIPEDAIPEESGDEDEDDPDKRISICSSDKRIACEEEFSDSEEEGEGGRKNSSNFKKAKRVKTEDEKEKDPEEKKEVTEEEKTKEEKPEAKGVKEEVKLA

As usually defined, the IC50 is the midpoint of a concentration-inhibition curve. Take `C/C=C1\NC(=O)[C@H]2CSSCC/C=C/[C@H](CC(=O)N[C@H](C(C)C)C(=O)N2)OC(=O)[C@H](C(C)C)NC1=O` [ROMIDEPSIN]: in [1], the IC50 was 0.036 µM.
Consider `COc1cc(OC)c2c(=O)[nH]c(-c3ccc(OCc4ccc(/C=C/C(=O)NO)cc4)cc3)nc2c1`, for which the IC50 in assay [2] came out at 1.8 µM; in assay [3], 1.78 µM; in [4], 1.97 µM.
The term inhibition denotes how much of the control response was suppressed. As for `COc1cc(OC)c2c(=O)[nH]c(-c3cc(C)c(OCc4ccc(/C=C/C(=O)NO)cc4)c(C)c3)nc2c1`, the values for the inhibition in [5] and in assay [9] were 83% and 62%, respectively. The IC50 in assay [2] is 0.43 µM; in assay [6], above 5 µM; in [7] it was 0.204 µM; in [3] it was 0.38 µM; in assay [4], 0.56 µM; in assay [8] it was 0.401 µM.
For `COc1cc(OC)c2c(=O)[nH]c(-c3cc(C)c(O)c(C)c3)nc2c1`, the inhibition in assay [5] was 98%; in assay [9] it was 87%.
As to `COc1cc(OC)c2c(=O)[nH]c(-c3cc(C)c(OCCCCCCCC(=O)NO)c(C)c3)nc2c1`, the inhibition in [5] worked out at 99%; in [9], 59%. The IC50 worked out at 1.83 µM in assay [2], 2.21 µM in [3] and 2.22 µM in assay [4].
Consider `COc1cc(OC)c2c(=O)[nH]c(-c3cc(C)c(OCCO)c(C)c3)nc2c1` [APABETALONE], for which the IC50 in assay [2] stood at 7.17 µM; in [3], 8.31 µM; in assay [4] it was 4.48 µM.
For `COc1cc(OC)c2c(=O)[nH]c(-c3cc(C)c(OCCCC(=O)NO)c(C)c3)nc2c1`, the inhibition was determined as 90% in assay [5] and 42% in assay [9]. Moreover, the results for the IC50 in [2], in [3] and in assay [4] were 5.53 µM, 4.53 µM and 5 µM, respectively.
The compound `Cc1[nH]c2ccccc2c1CCNCc1ccc(/C=C/C(=O)NO)cc1` [PANOBINOSTAT] registered an IC50 in assay [1] of 0.005 µM.
As to `COc1cc(OC)c2c(=O)[nH]c(-c3cc(C)c(OCCCCC(=O)NO)c(C)c3)nc2c1`, the inhibition in assay [5] stood at 91%; in [9] it was 73%. Moreover, the IC50 is 1.09 µM in assay [2]; above 5 µM in [6]; 0.032 µM in assay [7]; 1.52 µM in assay [3]; 1.67 µM in [4]; 0.225 µM in [8].
As for `COc1cc(OC)c2c(=O)[nH]c(-c3ccc(OCCCCC(=O)NO)cc3)nc2c1`, the IC50 in [2] was found to be 9.31 µM; in assay [3] it was 12.2 µM; in assay [4] it was 9.88 µM.
Turning to `COc1cc(OC)c2c(=O)[nH]c(-c3cc(C)c(OC/C=C/C(=O)NO)c(C)c3)nc2c1`, the inhibition in [5] is 93%; in assay [9], 41%.
With `COc1cc(OC)c2c(=O)[nH]c(-c3cc(C)c(OCCCCCC(=O)NO)c(C)c3)nc2c1`, the inhibition in assay [5] was 97%; in assay [9] it was 90%. In addition, the IC50 in assay [2] is 0.67 µM; in assay [3], 0.98 µM; in assay [4], 0.92 µM.
Take `O=C(CCCCCCC(=O)Nc1ccccc1)NO` [VORINOSTAT]: the values for the inhibition in assay [5] and in assay [9] were 10% and 2%, respectively. Besides, in [1], the IC50 turned out to be 0.01 µM.
As for `COc1cc(OC)c2c(=O)[nH]c(-c3ccc(OCCCCCC(=O)NO)cc3)nc2c1`, the half-inhibitory concentration (IC50) in [2] amounted to 11.1 µM; in [3] it was 13.6 µM; in assay [4], 4.28 µM.
Regarding `COc1cc(OC)c2c(=O)[nH]c(-c3cc(C)c(OCCCCCCC(=O)NO)c(C)c3)nc2c1`, the inhibition in assay [5] came to 88%; in assay [9], 29%.
Take `COc1cc(OC)c2c(=O)[nH]c(-c3cc(C)c(Oc4ccc(C(=O)NO)cn4)c(C)c3)nc2c1`: the inhibition in assay [5] is 93%; in assay [9], 51%. The concentration for half-maximal inhibition (IC50) is 3.04 µM in assay [2], 6.36 µM in [3] and 1.39 µM in assay [4].
